The source made the active and inactive calls. No cut-off for these calls is given here.
tested on: Drosophila; assay: Short term memory enhancement in human Abeta42 transgenic Drosophila alzheimers disease model dosed for 6 days by pavlovian olfactory learning assay after 8 days; type: functional, organism-based

Structure (SMILES)	Activity
COC(=O)C1=CO[C@@H](O[C@@H]2O[C@H](COC(C)=O)[C@@H](O)[C@H](O)[C@H]2O)[C@@H]2C(CO)=CC[C@H]12	Active
COC(=O)C1=CO[C@@H](O[C@@H]2O[C@H](CO)[C@@H](O)[C@H](O)[C@H]2O)[C@@H]2C(CO)=CC[C@H]12	Active
COC(=O)C1=CO[C@@H](O[C@@H]2O[C@H](COC(=O)/C=C/c3cc(OC)c(O)c(OC)c3)[C@@H](O)[C@H](O)[C@H]2O)[C@@H]2C(CO)=CC[C@H]12	Active
COC(=O)C1=CO[C@@H](O[C@@H]2O[C@H](COC(=O)/C=C/c3ccc(O)cc3)[C@@H](O)[C@H](O)[C@H]2O)[C@@H]2C(CO)=CC[C@H]12	Active
COC(=O)C1=CO[C@@H](O[C@@H]2O[C@H](CO)[C@@H](O)[C@H](O)[C@H]2O)[C@@H]2C(COC(C)=O)=CC[C@H]12	Active
COc1cc(/C=C/C(=O)OC[C@H]2O[C@@H](OC[C@H]3C(=O)OC[C@@H]4C(CO)=CC[C@@H]43)[C@H](O)[C@@H](O)[C@@H]2O)cc(OC)c1O	Active
COc1cc(/C=C/C(=O)OC[C@H]2O[C@@H](OCC3=CC[C@H]4[C@@H]3COC(=O)[C@@H]4CO)[C@H](O)[C@@H](O)[C@@H]2O)cc(OC)c1O	Active
COC(=O)C1=CO[C@@H](O[C@@H]2O[C@H](CO)[C@@H](O)[C@H](O)[C@H]2O)[C@@H]2C(COC(=O)CCC(=O)O)=CC[C@H]12	Active
